In this assay the target is T1, SIRT1 (Homo sapiens, UniProt Q96EB6).
T1 sequence (Q96EB6 1-747): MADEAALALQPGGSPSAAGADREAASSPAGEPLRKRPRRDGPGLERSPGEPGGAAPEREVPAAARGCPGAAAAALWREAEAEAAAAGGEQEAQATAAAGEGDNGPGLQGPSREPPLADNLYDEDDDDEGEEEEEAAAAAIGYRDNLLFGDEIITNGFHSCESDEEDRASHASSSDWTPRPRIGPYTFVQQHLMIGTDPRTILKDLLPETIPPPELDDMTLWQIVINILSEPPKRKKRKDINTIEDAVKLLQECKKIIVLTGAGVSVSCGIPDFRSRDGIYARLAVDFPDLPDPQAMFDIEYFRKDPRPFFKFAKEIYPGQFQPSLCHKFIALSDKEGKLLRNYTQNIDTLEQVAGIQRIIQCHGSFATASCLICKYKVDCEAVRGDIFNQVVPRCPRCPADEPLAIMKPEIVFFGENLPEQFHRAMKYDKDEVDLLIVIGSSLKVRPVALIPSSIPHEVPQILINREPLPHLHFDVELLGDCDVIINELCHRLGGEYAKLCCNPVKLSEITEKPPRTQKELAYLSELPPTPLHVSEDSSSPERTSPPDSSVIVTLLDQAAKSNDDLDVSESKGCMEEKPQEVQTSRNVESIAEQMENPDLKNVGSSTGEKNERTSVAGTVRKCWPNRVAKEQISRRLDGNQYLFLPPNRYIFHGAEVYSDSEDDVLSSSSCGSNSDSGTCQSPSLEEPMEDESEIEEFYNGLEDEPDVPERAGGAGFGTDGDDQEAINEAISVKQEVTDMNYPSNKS
As to the kind of experiment: Trp mass spectrometry assay of SIRT1 activity. Conditions: for Trp EC1.5 (μM): concentration giving 150% activation of SIRT1; for Emax: read-out: Trp % Fold Act. The class given is biochemical. An outline of the steps:
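Activation readout: EC1.5 (concentration raising activity 50% over control) and percent maximum activation, from mass-spec quantitation of OAADPR or deacetylated Trp peptide. Reaction: 0.5 μM acetylated Trp peptide, 120 μM βNAD+, 10 nM bacterially expressed N-His SIRT1, pH 7.5 HEPES buffer with […], 25 min at 25° C.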

Where [1] appears, read: Trp assay, percent maximum fold activation.
Where [2] appears, read: percent maximum fold activation of SIRT1, Trp peptide substrate.

Experimental findings from patent US9957271B2, “Substituted bicyclic aza-heterocycles and analogues as sirtuin modulators” (GlaxoSmithKline, LLC, priority 2012, dated 2018) are described below.

SMILES strings stand for the structures. Read-outs that look alike come from different tables or passages of the source.

Regarding `Cc1nc(NC(=O)c2cnc3ccc(N4CC[C@H](F)C4)nn23)sc1C` [Compound 892], the “Trp EC1.5 (μM)” value (Trp assay) was “A (EC1.5<1 μM)”. For the same compound, under setting [1], the Emax is below 350%.
Regarding `Cc1cncc(NC(=O)c2c(C)nn3ccc(N4CCC[C@@H]4C(F)(F)F)nc23)c1` [Compound 1072], the Emax under setting [2] was at least 350%.
In the case of `O=C(Nc1ccccn1)c1cnn2ccc(N3CCCC(C(F)(F)F)C3)nc12` (stereo not shown) [Compound 1008], the Emax under setting [2] is at least 350%.
For the compound `O=C(Nc1ccc(F)cn1)c1cnc2ccc(N3CC[C@H](O)C3)nn12` [Compound 983], under setting [1], the Emax was below 350%.
As for `C[C@@H]1CN(c2ccc3ncc(C(=O)Nc4cccnc4)n3n2)CCO1` [Compound 1002], the Emax under setting [2] was at least 350%.
As to `CC1CCN(c2ccc3ncc(C(=O)Nc4cccnn4)n3n2)C1` (stereo not shown) [Compound 978], the Emax under setting [1] was at least 350%.
As for `O=C(Nc1cccc(-c2cnco2)n1)c1cnc2ccc(N3CCCC3C(F)(F)F)nn12` (stereo not shown) [Compound 1099], under setting [2], the Emax is at least 350%.
In the case of `Cc1nc2c(OC[C@H](O)CO)cc(-c3ccccc3C(F)(F)F)nn2c1C(=O)Nc1cccnc1` [Compound 862], the “Trp EC1.5 (μM)” value (Trp assay) was “A (EC1.5<1 μM)”. The Emax under setting [1] is at least 350%.
The matching figures for `Cc1cccc(NC(=O)c2cnc3ccc(-c4cccc(OC[C@H](O)CO)c4)nn23)n1` [Compound 848]: “A (EC1.5<1 μM)” and at least 350%.
The matching figures for `Cc1nc2ccc(N3CC[C@H](N(C)C)C3)nn2c1C(=O)Nc1ncccn1` [Compound 885]: “B (EC1.5 1-25 μM)” and below 350%.
As to `O=C(Nc1cccnc1)c1cnn2ccc(N3CCC[C@H]3C(F)(F)F)nc12` [Compound 1026], under setting [2], the Emax is at least 350%.
On the same count and under the same terms, under `Cc1nn2ccc(N3CCC[C@H]3C(F)(F)F)nc2c1C(=O)Nc1cnccn1` [Compound 1046] stands at least 350%; under `O=C(Nc1cc(-c2cnco2)ccn1)c1cnc2ccc(N3CCCC3C(F)(F)F)nn12` (stereo not shown) [Compound 1098], at least 350%.
Turning to `CC1CCCN1c1ccn2ncc(C(=O)Nc3ccncn3)c2n1` (stereo not shown) [Compound 1042], the Emax under setting [2] is below 350%.
Turning to `CN1CCN(c2ccc3ncc(C(=O)Nc4ccc(F)cn4)n3n2)CC1` [Compound 947], the Emax under setting [1] was below 350%.
In the case of `COc1nccc(NC(=O)c2cnn3ccc(N4CCCC4C)nc23)n1` (stereo not shown) [Compound 1043], under setting [2], the Emax is below 350%.
Turning to `Cc1nc(NC(=O)c2cnn3ccc(N4CCC(C(F)(F)F)CC4)nc23)sc1C` [Compound 1065], the Emax under setting [2] is at least 350%.
With `CN1CCN(c2ccc3ncc(C(=O)Nc4ccncn4)n3n2)CC1` [Compound 971], under setting [1], the Emax is below 350%.
Still for that read-out and setting: under `CC1CCN(c2ccc3ncc(C(=O)Nc4ccccn4)n3n2)C1` (stereo not shown) [Compound 975] stands below 350%.
For the compound `O=C(Nc1cncc(F)c1)c1cnn2ccc(N3CCC[C@H]3C(F)(F)F)nc12` [Compound 1028], under setting [2], the Emax is at least 350%.
Consider `Cc1nn2ccc(N3CCC[C@@H]3C(F)(F)F)nc2c1C(=O)Nc1ccccn1` [Compound 1070], for which the Emax under setting [2] is at least 350%.
Turning to `COc1nccc(NC(=O)c2cnc3ccc(N4CC[C@H](F)C4)nn23)n1` [Compound 918], the “Trp EC1.5 (μM)” value (Trp assay) is “B (EC1.5 1-25 μM)”. In addition, the Emax under setting [1] is below 350%.
The matching figures for `O=C(Nc1ccc(F)cn1)c1cnc2ccc(N3CC(F)(F)C3)nn12` [Compound 914]: “C (EC1.5>25 μM)” and below 350%.
In the case of `O=C(Nc1ccccn1)c1cnc2ccc(N3CC[C@H](F)C3)nn12` [Compound 836], the “Trp EC1.5 (μM)” value (Trp assay) was “B (EC1.5 1-25 μM)”. For the same compound, under setting [1], the Emax is at least 350%.
On to `Cc1nc(NC(=O)c2cnn3ccc(N4CCCCC4C(F)(F)F)nc23)sc1C` (stereo not shown) [Compound 965], for which the Emax under setting [1] is at least 350%.
Regarding `O=C(Nc1ccccn1)c1cnc2ccc(N3CC(F)(F)C3)nn12` [Compound 912], the “Trp EC1.5 (μM)” value (Trp assay) is listed as “B (EC1.5 1-25 μM)”. For the same compound, under setting [1], the Emax was below 350%.
Take `O=C(Nc1ccccn1)c1cnn2ccc(N3CCC[C@@H]3C(F)(F)F)nc12` [Compound 1090]: under setting [2], the Emax was below 350%.
As to `Cc1cccc(NC(=O)c2c(C)nc3c(OC[C@H](O)CO)cc(-c4ccccc4C(F)(F)F)nn23)n1` [Compound 849], the “Trp EC1.5 (μM)” value (Trp assay) is given as “A (EC1.5<1 μM)”. For the same compound, the Emax under setting [1] is at least 350%.
As for `O=C(Nc1cc(OC[C@@H](O)CO)cnn1)c1cnc2ccc(N3CC[C@H](F)C3)nn12` [Compound 917], the “Trp EC1.5 (μM)” value (Trp assay) is given as “B (EC1.5 1-25 μM)”. Further, the Emax under setting [1] was below 350%.
The matching figures for `CN(C)c1cccc(NC(=O)c2cnc3ccc(N4CC[C@H](F)C4)nn23)n1` [Compound 911]: “A (EC1.5<1 μM)” and at least 350%.
As for `Cc1nc2ccc(N3CC[C@H](F)C3)nn2c1C(=O)Nc1cccnc1` [Compound 841], the “Trp EC1.5 (μM)” value (Trp assay) is reported as “A (EC1.5<1 μM)”. Besides, under setting [1], the Emax is at least 350%.
With `O=C(Nc1cccnn1)c1cnn2ccc(N3CCCC(C(F)(F)F)C3)nc12` (stereo not shown) [Compound 1023], the Emax under setting [2] was at least 350%.
Take `O=C(Nc1ccncn1)c1cnc2ccc(N3CCCC3)nn12` [Compound 894]: where the note is “Trp assay”, the “Trp EC1.5 (μM)” value is recorded as “B (EC1.5 1-25 μM)”. The Emax under setting [1] is below 350%.
Consider `CC1(C)CCN(c2ccc3ncc(C(=O)Nc4cccnc4)n3n2)C1` [Compound 953], for which, under setting [1], the Emax is at least 350%.
Regarding `O=C(Nc1cncc(F)c1)c1cnc2ccc(N3CC[C@H](F)C3)nn12` [Compound 890], the “Trp EC1.5 (μM)” value (Trp assay) is “B (EC1.5 1-25 μM)”. For the same compound, the Emax under setting [1] was below 350%.
The matching figures for `CN(C)[C@H]1CCN(c2ccc3ncc(C(=O)Nc4ccncn4)n3n2)C1` [Compound 882]: “B (EC1.5 1-25 μM)” and below 350%.
`Cc1cncc(NC(=O)c2cnn3ccc(N4CCC[C@H]4C(F)(F)F)nc23)c1` [Compound 1027]: the Emax under setting [2] is at least 350%.
`Cc1cncc(NC(=O)c2cnc3ccc(N4CC[C@H](F)C4)nn23)c1` [Compound 889]: the “Trp EC1.5 (μM)” value (Trp assay) is “B (EC1.5 1-25 μM)”. Also, under setting [1], the Emax was below 350%.
Consider `O=C(Nc1ccc(F)cn1)c1cnc2ccc(N3CCC(F)(F)CC3)nn12` [Compound 962], for which, under setting [1], the Emax was below 350%.
For `Cc1nc2ccc(N3CCC(F)(F)C3)nn2c1C(=O)Nc1cncc(F)c1` [Compound 991], under setting [1], the Emax was below 350%.
As for `O=C(Nc1ccccn1)c1cnc2ccc(N3CCC(F)(F)C3)nn12` [Compound 909], under “Trp assay”, the “Trp EC1.5 (μM)” value is given as “B (EC1.5 1-25 μM)”. Besides, under setting [1], the Emax was at least 350%.
As to `O=C(Nc1ccccn1)c1cnn2ccc(N3CCC(C(F)(F)F)C3)nc12` (stereo not shown) [Compound 1011], the Emax under setting [2] is at least 350%.
Take `O=C(Nc1ccncn1)c1cnc2ccc(N3CCOCC3)nn12` [Compound 961]: under setting [1], the Emax is below 350%.
For the compound `O=C(Nc1ccccn1)c1cnc2ccc(N3CCC[C@H](F)C3)nn12` [Compound 986], the Emax under setting [1] is at least 350%.
As to `CN(C)[C@H]1CCN(c2ccc3ncc(C(=O)Nc4ccccn4)n3n2)C1` [Compound 866], the “Trp EC1.5 (μM)” value (Trp assay) is listed as “B (EC1.5 1-25 μM)”. The Emax under setting [1] was at least 350%.
On to `Cc1cc(C)nc(NC(=O)c2c(C)nc3c(OC[C@H](O)CO)cc(-c4ccccc4C(F)(F)F)nn23)c1` [Compound 834], for which, where the note is “Trp assay”, the “Trp EC1.5 (μM)” value is recorded as “A (EC1.5<1 μM)”. In addition, the Emax under setting [1] is at least 350%.
The like results for `O=C(Nc1cccnc1)c1cnc2ccc(N3CCCC(C(F)(F)F)C3)nn12` (stereo not shown) [Compound 932] were, in that order, “A (EC1.5<1 μM)” and at least 350%.
Consider `O=C(Nc1cccnc1)c1cnn2ccc(N3CCCC(C(F)(F)F)C3)nc12` (stereo not shown) [Compound 1007], for which, under setting [2], the Emax was at least 350%.
On the same count and under the same terms, under `O=C(Nc1cccnn1)c1cnn2ccc(N3CCC[C@@H]3C(F)(F)F)nc12` [Compound 1079] stands at least 350%.
With `Cc1nc2ccc(N3CC[C@H](N(C)C)C3)nn2c1C(=O)Nc1ccncc1F` [Compound 870], the “Trp EC1.5 (μM)” value (Trp assay) was “C (EC1.5>25 μM)”. The Emax under setting [1] is below 350%.
For the compound `O=C(Nc1cccnc1)c1cnc2ccc(N3CCCC3C(F)(F)F)nn12` (stereo not shown) [Compound 966, N-(pyridin-3-yl)-6-(2-(trifluoromethyl)pyrrolidin-1-yl)imidazo[1,2-b]pyridazine-3-carboxamide], the “Trp EC1.5 (μM)” value (Trp assay) is “A (EC1.5<1 μM)”. Besides, the Emax under setting [1] is at least 350%.
